In patent US20210008095A1, “METHODS FOR TREATING MUSCULAR DYSTROPHY” (Sarepta Therapeutics, Inc., priority 2015, published 2021):
Several values for one entry are separate records, joined by “and”; a condition that tells them apart may be missing. Equal values may be shown once.

Assays:
[1] = system: patients with Duchenne muscular dystrophy (DMD) amenable to exon 51 skipping; assay: Loss of ambulation / ambulatory status incl. Kaplan-Meier analysis, Study 201/202; format: in vivo, human
Description: Study 201 (Study no. 4658-us-201; ClinicalTrials.gov Identifier: NCT01396239) was a single-site, randomized, double-blind, placebo-controlled, multiple-dose efficacy, safety and tolerability trial of eteplirsen. Twelve patients with DMD were randomized to one of three groups: eteplirsen 30 mg/kg/week (Cohort 1); eteplirsen 50 mg/kg/week (Cohort 2); or placebo/delayed eteplirsen (Cohort 3). All patients received weekly intravenous eteplirsen or placebo/delayed eteplirsen dosing. Placebo-treated patients crossed over to weekly eteplirsen 30 (n=2) or 50 mg/kg (n=2) at week 25. Efficacy and safety were assessed at scheduled visits, and an independent Data Safety Monitoring Board ensured the welfare of all patients. All patients had bicep biopsies at baseline. Follow-up biopsies were performed in the opposite arm (biceps) at week 12 for the 50 mg/kg group and two placebo-treated patients and at week 24 for the 30 mg/kg group and two placebo-treated patients.
(§1) Patients continued weekly dosing with 30 or 50 mg/kg eteplirsen under Study 202 (Study no. 4658-us-202; ClinicalTrials.gov Identifier: NCT01540409) a long-term, open-label extension study. All efficacy assessments continued to be performed during Study 202, including a third biopsy (in the left deltoid muscle) in all patients at week 48. A voluntary fourth biopsy ( 11/12 patients) was performed at week 180. Monitoring of adverse events continued throughout the study.
To compare the results of the eteplirsen cohort to a matched external control cohort, the Italian Telethon (n=97) and Leuven Neuromuscular Research Center (NMRC) (n=89) registries were used to compile control data. These registries were chosen because the following data was available: longitudinal 6MWT data in exon 51 amenable patients, longitudinal 6MWT data up to 36 months, and genetic mutation data. There was also an equivalent standard of care, including steroids, in these registries. Patient data was selected based on the following factors: baseline 6MTW and steroid treatment, age of 7 years or older, and amenable to exon 51 skipping (FIG. 2)
(§2) The 6MWT was administered using the protocol established for patients with DMD by McDonald, et al. (Muscle Nerve, 2010; 42:966-74; Muscle Nerve, 2010; 41:500-10 herein incorporated by reference), except there was no use of the StepWatch actimetry device. Exploratory functional outcomes included the North Star Ambulatory Assessment, quantitative muscle testing, the 9-Hole Peg Test, pulmonary function testing (PFT), timed function tests, and assessment of quality of life.

[2] = system: exon 51 of the human dystrophin gene; assay: Exon 51 skipping in patient muscle biopsy at week 180; format: in vivo; conditions: 180 weeks
Description: as §1

[3] = system: dystrophin; assay: Dystrophin positive fibers by immunohistochemistry (MANDYS106) in muscle biopsy; format: in vivo, human
Description: as §1
Dystrophin expression levels were determined in both the eteplirsen treated cohort and matched external control cohort, based on MANDYS106 [a gift from Glen Morris, MDA Monoclonal Antibody Library], a highly sensitive marker for dystrophin used in prior studies of eteplirsen and other exon skipping candidates. Three 10 μm frozen sections, separated by at least 200 μm, were stained with MANDYS106, followed by a secondary antibody (Alexa Fluor 594 goat antimouse antibody). Four pathologists reviewed the tissue blinded and reported percent dystrophin-positive fibers, which were calculated by dividing the number of positive fibers by the total fibers counted. As normal muscle samples have 100% dystrophin-positive fibers, percent dystrophin-positive fibers is expressed as a percentage of normal.

[4] = system: dystrophin; assay: Dystrophin protein expression by western blot analysis in muscle biopsy; format: in vivo, human; conditions: 180 weeks
Description: In some embodiments, the percent dystrophin-positive fibers are calculated by dividing the number of positive fibers by the total fibers counted. Normal muscle samples have 100% dystrophin-positive fibers. Therefore, the percent dystrophin-positive fibers can be expressed as a percentage of normal. To control for the presence of trace levels of dystrophin in the pretreatment muscle as well as revertant fibers a baseline can be set using sections of pre-treatment muscles from each patient when counting dystrophin-positive fibers in post-treatment muscles. This may be used as a threshold for counting dystrophin-positive fibers in sections of post-treatment muscle in that patient. In other embodiments, antibody-stained tissue sections can also be used for dystrophin quantification using Bioquant image analysis software (Bioquant Image Analysis Corporation, Nashville, Tenn.). The total dystrophin fluorescence signal intensity can be reported as a percentage of normal. […] Dystrophin production can also be measured by reverse-transcription polymerase chain reaction (RT-PCR). […] The percentage of dystrophin-positive fibers can also be analyzed by determining the expression of the components of the sarcoglycan complex (β,γ) and/or neuronal NOS. […]

[5] = system: patients with Duchenne muscular dystrophy (DMD) amenable to exon 51 skipping; assay: North Star Ambulatory Assessment (NSAA); format: in vivo, human; set-up: key to Year 3 NSAA Score: sum of activity scores, each 2 = normal to 0 = unable independently
Text: Due to decreases in muscle function in patients with DMD, ambulation is often lost during disease progression. Ambulation can be measured through various methods, including the North Star Ambulatory Assessment (NSAA). The NSAA was developed by the Physiotherapy Assessment and Evaluation Group of the North Start Clinical Network to assess ambulant boys with DMD, and provides a list of activities that are scored from 2-0, with 2 being normal and 0 being “unable to achieve independently” (2006-2011 MDC/North Star Clinical Network). These activities range from standing for a minimum of 3 seconds to climbing up and down a box to running. In certain embodiments, treatment with eteplirsen may maintain, stabilize, increase, or improve ambulation, for example, as determined by the NSAA.
as §2

RNA, [P-deoxy-P-(dimethylamino)](2′,3′-dideoxy-2′,3′-imino-2′,3′-seco)(2′a→5′)(C-m5U-C-C-A-A-C-A-m5U-C-A-A-G-G-A-A-G-A-m5U-G-G-C-A-m5U-m5U-m5U-C-m5U-A-G), 5′-[P-[4-[[2-[2-(2-hydroxyethoxy)ethoxy]ethoxy]carbonyl]-1-piperazinyl]-N,N-dimethylphosphonamidate] (antisense CTCCAACATCAAGGAAGATGGCATTTCTAG; all phosphorodiamidate morpholino (PMO); 5' piperazinyl triethylene glycol carbamate tail on phosphonamidate, further chemistry not fully specified) [eteplirsen]
Kaplan-Meier estimate for loss of ambulation rate ([1]; 4 years / 216 weeks of treatment, external control 89.7%, p=0.0038 log-rank): 16.7%
patients remaining ambulant ([1]; 216 weeks (over 4 years)): 83.3%
number of patients remaining ambulant ([1]; 216 weeks of treatment): 10 out of 12
age for loss of ambulation ([1]; Kaplan-Meier, external control median 12.8 years): could not be estimated
number of patients who lost ambulation ([1]; over 36 months): two of the twelve
cohort that lost ambulation (cumulative) ([1]; over 36 months, external control 46.2%): 16.7%
number of patients who lost ambulation ([1]; over 216 weeks): two of the twelve
DMD patients remaining ambulant ([1]; week 192, 30 mg/kg once per week): 83%
number of patients ambulant ([1]; week 192 of treatment): 10/12
ambulation in patients who lost the ability to rise from supine ([1]; year 4 of treatment): remained ambulant at year 4
exon 51 skipping [2]: all patients had measurable exon 51 skipping
patients with dystrophin positive fibers as measured by immunohistochemistry ([3]; 180 weeks): 10 of 11
dystrophin positive fibers compared to matched external control patients ([3]; after 180 weeks, four blinded pathologists, p<0.001): significantly higher amount of dystrophin positive fibers
patients with dystrophin protein expression as measured by western blot analysis [4]: 9 of 11
rate of decline in NSAA score ([5]; at 2 and 3 years following treatment, vs external control): slower rate of decline in NSAA score
difference in NSAA score compared to the external control group cohort ([5]; at 3 years): 2.6 points
Year 3 NSAA Score ([5]; individual ambulatory subjects (n=10)): 13 (3×) and 14 and 24 and 25 (2×) and 7 and 8 and 11
